These are literature values, as cited in patent US20050090554A1, “Treatment of gastroparesis and nonulcer dyspepsia with GABAB agonists” (priority 2003, published 2005).

For data set [1] the following is noted: compared with the S-isomer.
The conditions of data set [2]: administered isomer.
The conditions of data set [3]: with the exception of the upper small intestine (carrier-mediated transport).

Take `NC[C@H](CC(=O)O)c1ccc(Cl)cc1` [(R)-baclofen]: in data set [1], the half-life result is “longer”, the metabolic clearance result is on record as “lower” and the systemic exposure result is “higher”. Further, in data set [2], the “arterial blood pressure and heart rate” value is listed as “opposite effects”.

As to `NC[C@@H](CC(=O)O)c1ccc(Cl)cc1` [(S)-baclofen], the “arterial blood pressure and heart rate” value in data set [2] is given as “decrease”.

Turning to `NCC(CC(=O)O)c1ccc(Cl)cc1` (racemic) [baclofen, 4-amino-3-(p-chlorophenyl)-butyric acid], the “permeability in the GI tract” value in data set [3] is reported as “poor permeability”.
